The values below come from ChEMBL document CHEMBL4138151, “Discovery of a head-to-tail cyclic peptide as the Keap1-Nrf2 protein-protein interaction inhibitor with high cell potency” (Eur J Med Chem, 2018).

Active and inactive are the calls of the source. The calls are words filed in the database; no cut-off is given here.

The target in assay [1] is T1, Kelch-like ECH-associated protein 1/Nuclear factor erythroid 2-related factor 2 (Mus musculus) (UniProt Q60795+Q9Z2X8). Kind of assay: Inhibition of Keap1/Nrf2 protein-protein interaction in mouse RAW264.7 cells assessed as upregulation of GCLM mRNA expression at 0.1 to 10 uM after 10 hrs by quantitative real-time-PCR analysis. It is filed as cell-based.
T1 sequence (Q60795 whole entry, looked up): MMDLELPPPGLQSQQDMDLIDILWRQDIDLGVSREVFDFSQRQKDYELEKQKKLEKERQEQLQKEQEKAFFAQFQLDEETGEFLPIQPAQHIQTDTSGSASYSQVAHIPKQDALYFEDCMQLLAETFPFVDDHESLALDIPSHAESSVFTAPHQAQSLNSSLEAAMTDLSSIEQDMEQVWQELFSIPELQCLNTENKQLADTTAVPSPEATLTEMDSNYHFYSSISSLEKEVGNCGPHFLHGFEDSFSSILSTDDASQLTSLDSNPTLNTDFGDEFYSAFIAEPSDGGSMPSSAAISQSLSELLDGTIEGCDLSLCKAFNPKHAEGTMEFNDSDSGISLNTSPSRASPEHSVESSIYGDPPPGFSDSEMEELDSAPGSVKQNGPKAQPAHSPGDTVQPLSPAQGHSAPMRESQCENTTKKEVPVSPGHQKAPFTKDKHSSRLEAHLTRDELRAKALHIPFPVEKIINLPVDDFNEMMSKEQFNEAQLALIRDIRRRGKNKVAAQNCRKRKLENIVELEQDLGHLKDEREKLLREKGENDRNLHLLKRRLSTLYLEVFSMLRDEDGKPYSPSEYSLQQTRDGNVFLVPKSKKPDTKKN
T1 sequence (Q9Z2X8 whole entry, looked up): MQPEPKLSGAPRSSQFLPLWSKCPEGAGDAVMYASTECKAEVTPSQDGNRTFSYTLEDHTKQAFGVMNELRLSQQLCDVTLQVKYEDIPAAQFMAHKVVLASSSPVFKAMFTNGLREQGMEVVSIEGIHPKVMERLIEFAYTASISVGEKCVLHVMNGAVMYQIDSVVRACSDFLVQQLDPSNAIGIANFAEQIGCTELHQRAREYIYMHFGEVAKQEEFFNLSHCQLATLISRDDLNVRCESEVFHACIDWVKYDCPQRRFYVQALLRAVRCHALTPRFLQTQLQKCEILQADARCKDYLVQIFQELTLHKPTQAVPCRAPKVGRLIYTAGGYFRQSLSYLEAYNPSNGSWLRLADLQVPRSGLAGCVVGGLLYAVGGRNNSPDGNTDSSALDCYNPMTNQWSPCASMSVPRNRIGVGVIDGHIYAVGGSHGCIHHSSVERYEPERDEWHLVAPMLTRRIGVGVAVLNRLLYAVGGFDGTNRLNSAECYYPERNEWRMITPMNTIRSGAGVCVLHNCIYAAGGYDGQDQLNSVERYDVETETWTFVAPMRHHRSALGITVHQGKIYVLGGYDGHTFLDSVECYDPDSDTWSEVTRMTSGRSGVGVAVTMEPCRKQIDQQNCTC
Assay [2] has as its target T1, Kelch-like ECH-associated protein 1/Nuclear factor erythroid 2-related factor 2 (Mus musculus). Kind of assay: Inhibition of Keap1/Nrf2 protein-protein interaction in mouse RAW264.7 cells assessed as upregulation of HO-1 mRNA expression at 0.1 to 10 uM after 10 hrs by quantitative real-time-PCR analysis. The format is cell-based.
Assay [3] has the same target. Kind of assay: Inhibition of Keap1/Nrf2 protein-protein interaction in mouse RAW264.7 cells assessed as increase in GCLM levels up to 10 uM after 8 hrs by Western blot analysis. It is filed as cell-based. (Immunoblotting shows a protein as a band on a membrane.)
For assay [4] the target is unchanged. Kind of assay: Inhibition of Keap1/Nrf2 protein-protein interaction in mouse RAW264.7 cells assessed as increase in HO-1 levels up to 10 uM after 8 hrs by Western blot analysis. The format is cell-based.
Assay [5] has the same target. As to the kind of experiment: Inhibition of Keap1/Nrf2 protein-protein interaction in mouse RAW264.7 cells assessed as increase in NQO1 levels up to 10 uM after 8 hrs by Western blot analysis. It is filed as cell-based.
For assay [6] the target is unchanged. As to the kind of experiment: Inhibition of Keap1/Nrf2 protein-protein interaction in mouse RAW264.7 cells assessed as upregulation of NQO1 mRNA expression at 0.1 to 10 uM after 10 hrs by quantitative real-time-PCR analysis. The format is cell-based.
For assay [7] the target is unchanged. As to the kind of experiment: Inhibition of Keap1/Nrf2 protein-protein interaction in mouse RAW264.7 cells assessed as upregulation of NQO1 mRNA expression at 1 uM after 10 hrs by quantitative real-time-PCR analysis. It is filed as cell-based.
Assay [8] deals with RAW264.7. As to the kind of experiment: Anti-inflammatory activity in mouse RAW264.7 cells assessed as inhibition of LPS-induced TNFalpha production up to 10 uM pretreated for 10 hrs followed by LPS stimulation for 12 hrs by ELISA. It is filed as functional, cell-based.
For assay [9], the system named is RAW264.7. As to the kind of experiment: Anti-inflammatory activity in mouse RAW264.7 cells assessed as reduction in LPS-induced NO production by measuring NO level at 10 uM preincubated for 10 hrs followed by LPS stimulation for 12 hrs by Griess assay (reference value: 50 uM). It is filed as functional. (Griess reagent forms a coloured azo dye with nitrite.)
In assay [10] the test system is RAW264.7. Kind of assay: Upregulation of SOD protein expression in mouse RAW264.7 cells at 1 uM after 8 hrs by Western blot analysis. It is filed as functional, cell-based.
Assay [11] deals with RAW264.7. Particulars: Mus musculus, up to 10 µM.
Description: Anti-inflammatory activity in mouse RAW264.7 cells assessed as inhibition of LPS-induced IL-18 production up to 10 uM pretreated for 10 hrs followed by LPS stimulation for 12 hrs by ELISA
The subject of assay [12] is RAW264.7. As to the kind of experiment: Anti-inflammatory activity in mouse RAW264.7 cells assessed as inhibition of LPS-induced IL-1beta production up to 10 uM pretreated for 10 hrs followed by LPS stimulation for 12 hrs by ELISA. It is filed as functional, cell-based. Background: An ELISA detects its analyte on a solid surface through an enzyme-linked reagent.
In assay [13] the target is T1, Kelch-like ECH-associated protein 1/Nuclear factor erythroid 2-related factor 2 (Mus musculus). Kind of assay: Inhibition of Keap1/Nrf2 protein-protein interaction in mouse RAW264.7 cells assessed as upregulation of HO1 mRNA expression at 1 uM after 10 hrs by quantitative real-time-PCR analysis. It is filed as cell-based.
Assay [14] has as its system RAW264.7. Kind of assay: Anti-inflammatory activity in mouse RAW264.7 cells assessed as restoration of LPS-induced decrease in SOD activity at 10 uM. It is filed as functional, cell-based.
Assay [15] has as its system RAW264.7. Kind of assay: Anti-inflammatory activity in mouse RAW264.7 cells assessed restoration of LPS-induced decrease in GSH-Px activity at 10 uM. It is filed as functional, cell-based.
Assay [16] deals with RAW264.7. Kind of assay: Anti-inflammatory activity in mouse RAW264.7 cells assessed inhibition of LPS-induced increase in MPO activity at 10 uM. It is filed as functional, cell-based.
For assay [17], the system named is RAW264.7. As to the kind of experiment: Upregulation of GSH-Px protein expression in mouse RAW264.7 cells at 1 uM after 8 hrs by Western blot analysis. It is filed as functional, cell-based.
The subject of assay [18] is RAW264.7. Kind of assay: Inhibition of LPS-induced increase in ROS levels in mouse RAW264.7 cells up to 10 uM preincubated for 10 hrs followed by LPS stimulation for 12 hrs by cH2DCF-DA dye-based fluorescent microscopy. It is filed as functional, cell-based.
Assay [19] deals with T1, Kelch-like ECH-associated protein 1/Nuclear factor erythroid 2-related factor 2 (Mus musculus). Kind of assay: Inhibition of Keap1/Nrf2 protein-protein interaction in mouse RAW264.7 cells assessed as upregulation of GCLM mRNA expression at 1 uM after 10 hrs by quantitative real-time-PCR analysis. It is filed as cell-based.

With `CC(=O)NCC(=O)N[C@@H](CCC(N)=O)C(=O)N[C@@H](CC(C)C)C(=O)N[C@@H](CC(=O)O)C(=O)N1CCC[C@H]1C(=O)N[C@@H](CCC(=O)O)C(=O)N[C@H](C(=O)NCC(=O)N[C@@H](CCC(=O)O)C(=O)N[C@@H](Cc1ccccc1)C(=O)N[C@@H](CC(C)C)C(=O)O)[C@@H](C)O`, the inhibition result in assay [1], in assay [2], in assay [3], in [4], in [5] and in assay [6] was “inactive” throughout.
Regarding `CC(C)C[C@@H]1NC(=O)[C@H](Cc2ccccc2)NC(=O)[C@H](CCC(=O)O)NC(=O)CNC(=O)[C@H]([C@@H](C)O)NC(=O)[C@H](CCC(=O)O)NC(=O)[C@@H]2CCCN2C(=O)[C@H](CC(=O)O)NC(=O)[C@H](CC(C)C)NC(=O)[C@H](CCC(N)=O)NC(=O)CNC1=O`, the inhibition entry in assay [7], in assay [8], in [11], in assay [12], in assay [13] and in assay [3] was “Active” throughout. For the same compound, the inhibition result in assay [4], in assay [5], in assay [16], in assay [18] and in [19] was “Active” in each case. In addition, the Activity in assay [9] came out at 14 µM. Also, the result in [10], in assay [14], in [15] and in [17] was Active.
